Source: PubChem BioAssay (NCI)
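Exposure lasted 48 hours, with cells grown in 96-well plates and compounds tested at five concentrations. The concentration for 50% growth inhibition is given as GI50. TGI is the concentration that stops growth completely.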

Experiments:
Experiment in all cases: NCI-60 cell line screen, 48 h
[1] = test system: K-562 leukemia
[2] = test system: SF-295 CNS
[3] = test system: OVCAR-5 ovarian
[4] = test system: NCI/ADR-RES ovarian
[5] = test system: OVCAR-8 ovarian
[6] = test system: PC-3 prostate
[7] = test system: COLO 205 colon
[8] = test system: NCI-H23 lung
[9] = test system: IGROV1 ovarian
[10] = test system: SNB-75 CNS
[11] = test system: DU-145 prostate
[12] = test system: ACHN renal
[13] = test system: EKVX NSCLC
[14] = test system: SK-MEL-28 melanoma
[15] = test system: SK-MEL-2 melanoma
[16] = test system: SF-539 CNS
[17] = test system: CCRF-CEM leukemia
[18] = test system: MDA-MB-231 breast
[19] = test system: HS 578T breast
[20] = test system: NCI-H226 lung
[21] = test system: SNB-19 CNS
[22] = test system: MOLT-4 leukemia
[23] = test system: MDA-MB-435
[24] = test system: SN12C renal
[25] = test system: NCI-H460 lung
[26] = test system: U251 CNS
[27] = test system: HOP-92 NSCLC
[28] = test system: MCF7 breast

Structure (SMILES): O=C(C[Si](CC(=O)c1cccc(C(F)(F)F)c1)CC(=O)c1cccc(C(F)(F)F)c1)c1cccc(C(F)(F)F)c1
- TGI [1]: 13.4 µM
- GI50 [2]: 2.88 µM
- TGI [2]: 11.2 µM
- GI50 [3]: 2.19 µM
- TGI [3]: 6.51 µM
- GI50 [4]: 3.75 µM
- TGI [4]: 15.4 µM
- GI50 [5]: 3.48 µM
- TGI [5]: 10.9 µM
- GI50 [6]: 3.11 µM
- TGI [6]: 11 µM
- GI50 [7]: 1.67 µM
- TGI [7]: 3.07 µM
- GI50 [8]: 3.27 µM
- TGI [8]: 15.6 µM
- GI50 [9]: 6.24 µM
- TGI [9]: 27.8 µM
- GI50 [10]: 2.42 µM
- TGI [10]: 8.81 µM
- GI50 [11]: 4.43 µM
- TGI [11]: 14.8 µM
- GI50 [12]: 2 µM
- TGI [12]: 4.94 µM
- GI50 [13]: 3.1 µM
- TGI [13]: 11.5 µM
- GI50 [14]: 3.51 µM
- TGI [14]: 13.6 µM
- GI50 [15]: 2.28 µM
- TGI [15]: 5.29 µM
- GI50 [16]: 1.85 µM
- TGI [16]: 3.85 µM
- GI50 [17]: 3.1 µM
- TGI [17]: 10.6 µM
- GI50 [18]: 2.3 µM
- TGI [18]: 4.73 µM
- GI50 [19]: 4.51 µM
- TGI [19]: 25.9 µM
- GI50 [20]: 2.11 µM
- TGI [20]: 5.3 µM
- GI50 [21]: 3.88 µM
- TGI [21]: 13.4 µM
- GI50 [22]: 2.81 µM
- TGI [22]: 8.24 µM
- GI50 [23]: 3.27 µM
- TGI [23]: 10.4 µM
- GI50 [24]: 3.03 µM
- TGI [24]: 10.1 µM
- GI50 [25]: 3.18 µM
- TGI [25]: 10.4 µM
- GI50 [26]: 3.27 µM
- TGI [26]: 10.4 µM
- GI50 [27]: 2.15 µM
- TGI [27]: 6.43 µM
- GI50 [28]: 3.05 µM
- TGI [28]: 11.5 µM
